Laboratory results: US12139520B2 (priority 2020, dated 2024)
Bridge positions count the residues as written; N and C are the ends. Square brackets hold non-standard residues; d marks the D form. Peptide text beside a SMILES is read from it. Hyp = O=C(O)[C@@H]1C[C@@H](O)CN1

Tests used:
hAM1 receptor = hAM1 receptor (Homo sapiens, UniProt O60895+Q16602); test: cAMP assay for in vitro receptor activation, hAM1-R; format: cell-based; details: cAMP assay, hAM1 receptor; read-out: hAM1R EC50
In short: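 cAMP accumulation was measured in a monoclonal cell line stably overexpressing the hAM1 receptor. Frozen aliquots were thawed and plated at 8000 cells/well in DPBS containing 0.05% casein and 0.5 mM IBMX.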

[1] = Physical stability of peptide analogues (Thioflavin T fibrillation); format: physicochemical; details: maximum ThT signal normalized between hAMY maximum and buffer background; 40° C., shaking, four days; pH 7 per table title
In short: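 Samples are stressed at 40 °C for four days, being shaken at 700 rpm before each 10-min fluorescence reading of 4 μM Thioflavin T. Buffers were pH 4 acetate or pH 7 phosphate. Reported values are smoothed maximum ThT signals as a percentage of the hAMY-to-background range.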

hAMY3 receptor = target: T1, hAMY3 receptor (Homo sapiens, UniProt O60896+P30988); test: cAMP assay for in vitro receptor activation, hAMY3-R; format: cell-based; details: cAMP assay, hAMY3 receptor; read-out: hAMY3R EC50
T1 sequence (P30988 25-474): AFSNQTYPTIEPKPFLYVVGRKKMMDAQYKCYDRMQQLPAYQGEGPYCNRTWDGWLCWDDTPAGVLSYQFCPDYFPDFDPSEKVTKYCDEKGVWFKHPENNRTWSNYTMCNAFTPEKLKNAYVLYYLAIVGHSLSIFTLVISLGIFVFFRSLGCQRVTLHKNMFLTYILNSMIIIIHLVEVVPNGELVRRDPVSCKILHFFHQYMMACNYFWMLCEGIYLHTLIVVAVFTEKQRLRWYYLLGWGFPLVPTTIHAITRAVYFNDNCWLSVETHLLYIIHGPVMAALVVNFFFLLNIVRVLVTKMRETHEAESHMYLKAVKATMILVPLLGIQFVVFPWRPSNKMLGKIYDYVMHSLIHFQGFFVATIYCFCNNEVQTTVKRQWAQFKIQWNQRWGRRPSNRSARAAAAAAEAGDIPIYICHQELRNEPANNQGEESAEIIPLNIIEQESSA
T1 sequence (O60896 24-148 partner): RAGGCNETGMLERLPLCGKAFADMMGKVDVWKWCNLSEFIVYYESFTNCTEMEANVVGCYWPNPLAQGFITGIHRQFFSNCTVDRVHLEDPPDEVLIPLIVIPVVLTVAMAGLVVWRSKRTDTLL
In short: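 Monoclonal cell line stably overexpressing hAMY3 receptor, plated in DPBS with 0.05% casein and 0.5 mM IBMX, was stimulated with graded compound doses for 30 min at room temperature. cAMP accumulation was read by time-resolved FRET one hour after adding detection reagents.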

hAM1 receptor, sequence (Q16602 23-461): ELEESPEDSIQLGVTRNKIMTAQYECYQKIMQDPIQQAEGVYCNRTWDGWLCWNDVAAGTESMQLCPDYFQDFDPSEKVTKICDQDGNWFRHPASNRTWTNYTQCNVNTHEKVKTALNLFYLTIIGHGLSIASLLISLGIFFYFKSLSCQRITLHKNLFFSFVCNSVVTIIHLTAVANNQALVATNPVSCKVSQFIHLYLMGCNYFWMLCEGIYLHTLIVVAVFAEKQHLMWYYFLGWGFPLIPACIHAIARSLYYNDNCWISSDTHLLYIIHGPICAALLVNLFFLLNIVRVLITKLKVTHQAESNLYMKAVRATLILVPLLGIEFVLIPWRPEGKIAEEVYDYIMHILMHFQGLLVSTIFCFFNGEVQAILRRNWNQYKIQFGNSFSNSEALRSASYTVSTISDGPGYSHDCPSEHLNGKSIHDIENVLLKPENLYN
hAM1 receptor, sequence (O60895 43-175 partner): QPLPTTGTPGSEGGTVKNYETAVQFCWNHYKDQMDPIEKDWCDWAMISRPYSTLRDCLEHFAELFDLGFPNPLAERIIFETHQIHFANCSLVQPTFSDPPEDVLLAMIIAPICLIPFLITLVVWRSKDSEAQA

SMILES	EC50 (hAM1 receptor) [nM]	Max ThT signal (%) [1] [%]	EC50 (hAMY3 receptor) [nM]
CC[C@H](C)[C@H](NC(=O)[C@H](CCC(N)=O)NC(=O)[C@H](Cc1c[nH]cn1)NC(=O)[C@H](C)NC(=O)[C@H](CC(C)C)NC(=O)[C@H](CCCNC(=N)N)NC(=O)[C@H](CCC(N)=O)NC(=O)[C@@H](NC(=O)[C@@H](NC(=O)[C@@H]1CSSC[C@H](NC(=O)CN)C(=O)N[C@@H](CCCNC(=N)N)C(=O)N[C@@H](CCSC)C(=O)NCC(=O)N[C@@H]([C@@H](C)O)C(=O)N1)[C@@H](C)O)C(C)C)C(=O)N[C@@H](Cc1ccc(O)cc1)C(=O)N[C@@H](CCC(N)=O)C(=O)N[C@@H](Cc1ccccc1)C(=O)N[C@H](C(=O)N[C@@H](CC(=O)O)C(=O)N[C@@H](CCCCN)C(=O)N[C@@H](CC(=O)O)C(=O)N[C@@H](CCCCN)C(=O)N[C@@H](CC(=O)O)C(=O)N[C@@H](CC(N)=O)C(=O)N[C@H](C(=O)N[C@@H](C)C(=O)N1CCC[C@H]1C(=O)N[C@@H](CO)C(=O)N[C@@H](CO)C(=O)N[C@@H](CCCCN)C(=O)N[C@H](C(=O)N[C@@H](CO)C(=O)N1CCC[C@H]1C(=O)N[C@@H](CCC(N)=O)C(=O)N[C@H](C(=O)N1C[C@H](O)C[C@H]1C(N)=O)[C@@H](C)O)[C@@H](C)CC)C(C)C)[C@@H](C)O [compound 222] (H-GCRMGTCTVQRLAHQIYQFTDKDKDNVAPSSKISPQT[Hyp]-NH2; disulfide 2-7; N-terminus assumed)	> 5000	11.700	0.184
CC[C@H](C)[C@H](NC(=O)[C@H](CCC(N)=O)NC(=O)[C@H](Cc1c[nH]cn1)NC(=O)[C@H](C)NC(=O)[C@H](CC(C)C)NC(=O)[C@H](Cc1c[nH]c2ccccc12)NC(=O)[C@H](CCC(N)=O)NC(=O)[C@@H](NC(=O)[C@@H](NC(=O)[C@@H]1CSSC[C@H](NC(=O)[C@@H](N)CCCCN)C(=O)N[C@@H](CC(N)=O)C(=O)N[C@@H]([C@@H](C)O)C(=O)N[C@@H](C)C(=O)N[C@@H]([C@@H](C)O)C(=O)N1)[C@@H](C)O)C(C)C)C(=O)N[C@@H](Cc1ccc(O)cc1)C(=O)N[C@@H](CCC(N)=O)C(=O)N[C@@H](Cc1ccccc1)C(=O)N[C@H](C(=O)N[C@@H](CCCCN)C(=O)N[C@@H](CC(=O)O)C(=O)N[C@@H](CCCCN)C(=O)N[C@@H](CC(=O)O)C(=O)N[C@@H](CC(N)=O)C(=O)N[C@H](C(=O)N[C@@H](C)C(=O)N1CCC[C@H]1C(=O)N1CCC[C@H]1C(=O)N[C@H](C(=O)N[C@@H](CC(N)=O)C(=O)N[C@H](C(=O)NCC(=O)N[C@@H](CO)C(=O)N[C@@H](CC(N)=O)C(=O)NCC(=O)N1C[C@H](O)C[C@H]1C(N)=O)C(C)C)[C@@H](C)O)C(C)C)[C@@H](C)O [compound 317] (H-KCNTATCTVQWLAHQIYQFTKDKDNVAPPTNVGSNG[Hyp]-NH2; disulfide 2-7; N-terminus assumed)	> 5000	5.550	0.004
CC[C@H](C)[C@H](NC(=O)[C@H](CCC(N)=O)NC(=O)[C@H](Cc1c[nH]cn1)NC(=O)[C@H](C)NC(=O)[C@H](CC(C)C)NC(=O)[C@H](Cc1c[nH]c2ccccc12)NC(=O)[C@H](CCC(N)=O)NC(=O)[C@@H](NC(=O)[C@@H](NC(=O)[C@@H]1CSSC[C@H](NC(=O)[C@@H](N)CCCCN)C(=O)N[C@@H](CC(N)=O)C(=O)N[C@@H]([C@@H](C)O)C(=O)N[C@@H](C)C(=O)N[C@@H]([C@@H](C)O)C(=O)N1)[C@@H](C)O)C(C)C)C(=O)N[C@@H](Cc1ccc(O)cc1)C(=O)N[C@@H](CCC(N)=O)C(=O)N[C@@H](Cc1ccccc1)C(=O)N[C@H](C(=O)N[C@@H](CC(=O)O)C(=O)N[C@@H](CCCCN)C(=O)N[C@@H](CC(=O)O)C(=O)N[C@@H](CCCCN)C(=O)N[C@@H](CC(=O)O)C(=O)N[C@@H](CC(N)=O)C(=O)N[C@H](C(=O)N1CCC[C@H]1C(=O)N1CCC[C@H]1C(=O)N[C@H](C(=O)N[C@@H](CC(N)=O)C(=O)N[C@H](C(=O)NCC(=O)N[C@@H](CO)C(=O)N[C@@H](CC(N)=O)C(=O)NCC(=O)N1C[C@H](O)C[C@H]1C(N)=O)C(C)C)[C@@H](C)O)C(C)C)[C@@H](C)O [compound 318] (H-KCNTATCTVQWLAHQIYQFTDKDKDNVPPTNVGSNG[Hyp]-NH2; disulfide 2-7; N-terminus assumed)	> 5000	14.900	0.009
